Holding throughout (assay): KINOMEscan
Common to all, as to format: binding
Details in all cases: read-out: % control activity remaining

The target of test [1] is T1, EPHA6 (Homo sapiens, UniProt Q9UF33).
T1 construct: purchased Eurofins DiscoverX KINOMEscan
T1 sequence (Q9UF33 23-1036): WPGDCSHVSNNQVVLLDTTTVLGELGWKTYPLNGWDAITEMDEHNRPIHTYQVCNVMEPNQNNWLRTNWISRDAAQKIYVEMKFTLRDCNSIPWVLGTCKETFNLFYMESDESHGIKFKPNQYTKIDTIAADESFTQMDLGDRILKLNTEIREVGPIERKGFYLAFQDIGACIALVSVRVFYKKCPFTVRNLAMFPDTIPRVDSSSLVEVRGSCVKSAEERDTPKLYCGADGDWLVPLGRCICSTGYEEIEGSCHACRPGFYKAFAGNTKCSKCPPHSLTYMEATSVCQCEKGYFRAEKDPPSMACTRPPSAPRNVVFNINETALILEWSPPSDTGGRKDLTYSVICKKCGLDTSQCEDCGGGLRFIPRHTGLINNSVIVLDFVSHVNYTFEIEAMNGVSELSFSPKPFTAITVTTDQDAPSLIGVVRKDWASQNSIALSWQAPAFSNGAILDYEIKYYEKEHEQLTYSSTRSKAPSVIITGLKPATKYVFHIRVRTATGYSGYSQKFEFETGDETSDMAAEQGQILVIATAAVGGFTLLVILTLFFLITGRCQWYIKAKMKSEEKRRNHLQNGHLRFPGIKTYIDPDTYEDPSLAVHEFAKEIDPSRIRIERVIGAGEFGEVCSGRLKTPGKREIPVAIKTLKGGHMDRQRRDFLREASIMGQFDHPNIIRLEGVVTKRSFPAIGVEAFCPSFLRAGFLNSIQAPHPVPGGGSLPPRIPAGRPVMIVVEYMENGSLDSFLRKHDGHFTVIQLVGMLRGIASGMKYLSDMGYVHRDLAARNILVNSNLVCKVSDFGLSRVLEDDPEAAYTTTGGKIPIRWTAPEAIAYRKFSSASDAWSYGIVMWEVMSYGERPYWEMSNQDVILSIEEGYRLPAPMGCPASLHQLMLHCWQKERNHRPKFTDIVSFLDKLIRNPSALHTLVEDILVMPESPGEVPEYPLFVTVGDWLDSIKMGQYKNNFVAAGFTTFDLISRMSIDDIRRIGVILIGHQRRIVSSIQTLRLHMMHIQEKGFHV

Test [2] addresses T2, PIK3CA(E545A) (Homo sapiens, UniProt P42336, E545A).
T2 construct: purchased Eurofins DiscoverX KINOMEscan

Test [3] addresses T3, SRPK1 (Homo sapiens, UniProt Q96SB4).
T3 construct: purchased Eurofins DiscoverX KINOMEscan

Test [4] has as its target T4, ULK2 (Homo sapiens, UniProt Q8IYT8).
T4 construct: purchased Eurofins DiscoverX KINOMEscan
T4 sequence (Q8IYT8 1-1036): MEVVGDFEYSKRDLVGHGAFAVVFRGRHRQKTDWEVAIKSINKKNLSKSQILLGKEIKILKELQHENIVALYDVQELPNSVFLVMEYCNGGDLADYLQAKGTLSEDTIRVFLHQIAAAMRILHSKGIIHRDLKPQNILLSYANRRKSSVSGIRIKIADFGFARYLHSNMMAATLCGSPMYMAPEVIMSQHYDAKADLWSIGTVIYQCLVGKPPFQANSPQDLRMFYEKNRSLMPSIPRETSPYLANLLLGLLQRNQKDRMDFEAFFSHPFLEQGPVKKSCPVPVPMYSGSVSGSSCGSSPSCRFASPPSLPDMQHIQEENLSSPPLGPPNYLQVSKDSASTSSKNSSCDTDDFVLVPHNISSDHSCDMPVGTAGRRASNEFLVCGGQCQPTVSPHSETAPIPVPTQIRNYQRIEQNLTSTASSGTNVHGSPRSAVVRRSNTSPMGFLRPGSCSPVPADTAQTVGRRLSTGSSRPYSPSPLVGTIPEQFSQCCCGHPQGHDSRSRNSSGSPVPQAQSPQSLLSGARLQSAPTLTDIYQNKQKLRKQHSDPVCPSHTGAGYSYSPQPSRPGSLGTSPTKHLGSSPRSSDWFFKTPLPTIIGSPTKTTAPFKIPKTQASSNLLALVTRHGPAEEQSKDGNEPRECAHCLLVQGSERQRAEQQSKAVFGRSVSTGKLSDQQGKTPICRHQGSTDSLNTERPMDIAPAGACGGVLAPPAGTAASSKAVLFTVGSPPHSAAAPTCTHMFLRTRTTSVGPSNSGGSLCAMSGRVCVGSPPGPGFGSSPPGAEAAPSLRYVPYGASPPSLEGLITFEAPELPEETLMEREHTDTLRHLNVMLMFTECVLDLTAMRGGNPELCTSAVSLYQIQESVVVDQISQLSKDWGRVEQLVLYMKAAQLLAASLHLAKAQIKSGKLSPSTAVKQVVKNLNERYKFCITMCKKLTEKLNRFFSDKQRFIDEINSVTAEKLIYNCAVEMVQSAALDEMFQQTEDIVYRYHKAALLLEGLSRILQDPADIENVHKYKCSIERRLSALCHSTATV

The target of test [5] is T5, MLK2 (Homo sapiens, UniProt Q02779).
T5 construct: purchased Eurofins DiscoverX KINOMEscan
T5 sequence (Q02779 whole entry): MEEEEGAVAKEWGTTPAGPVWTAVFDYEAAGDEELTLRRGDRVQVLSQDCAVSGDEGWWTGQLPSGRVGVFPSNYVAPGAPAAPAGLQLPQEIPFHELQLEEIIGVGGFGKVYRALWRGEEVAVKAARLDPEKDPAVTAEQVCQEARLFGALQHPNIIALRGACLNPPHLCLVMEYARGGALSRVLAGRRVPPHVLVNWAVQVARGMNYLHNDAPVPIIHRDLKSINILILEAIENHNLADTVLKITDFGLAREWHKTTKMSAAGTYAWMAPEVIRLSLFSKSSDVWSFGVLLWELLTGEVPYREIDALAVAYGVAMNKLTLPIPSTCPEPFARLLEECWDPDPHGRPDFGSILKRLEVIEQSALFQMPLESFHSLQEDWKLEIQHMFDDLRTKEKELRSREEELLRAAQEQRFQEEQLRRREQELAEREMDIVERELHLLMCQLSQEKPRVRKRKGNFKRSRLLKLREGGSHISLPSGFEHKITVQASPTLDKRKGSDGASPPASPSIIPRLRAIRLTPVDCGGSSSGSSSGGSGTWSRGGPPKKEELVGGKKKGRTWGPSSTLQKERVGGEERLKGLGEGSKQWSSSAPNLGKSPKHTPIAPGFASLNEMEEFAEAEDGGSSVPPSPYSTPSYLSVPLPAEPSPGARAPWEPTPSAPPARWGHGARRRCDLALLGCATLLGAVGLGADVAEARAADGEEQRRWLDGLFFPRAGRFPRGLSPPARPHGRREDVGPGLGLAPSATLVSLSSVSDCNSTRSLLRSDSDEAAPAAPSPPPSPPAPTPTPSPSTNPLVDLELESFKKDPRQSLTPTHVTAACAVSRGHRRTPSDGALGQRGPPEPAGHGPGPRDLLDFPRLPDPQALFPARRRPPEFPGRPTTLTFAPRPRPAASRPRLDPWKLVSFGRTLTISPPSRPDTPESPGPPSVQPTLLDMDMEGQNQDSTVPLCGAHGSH

The target in test [6] is T6, MET(Y1235D) (Homo sapiens, UniProt P08581, Y1235D).
T6 construct: purchased Eurofins DiscoverX KINOMEscan
T6 sequence (P08581 25-1390 Y1235D): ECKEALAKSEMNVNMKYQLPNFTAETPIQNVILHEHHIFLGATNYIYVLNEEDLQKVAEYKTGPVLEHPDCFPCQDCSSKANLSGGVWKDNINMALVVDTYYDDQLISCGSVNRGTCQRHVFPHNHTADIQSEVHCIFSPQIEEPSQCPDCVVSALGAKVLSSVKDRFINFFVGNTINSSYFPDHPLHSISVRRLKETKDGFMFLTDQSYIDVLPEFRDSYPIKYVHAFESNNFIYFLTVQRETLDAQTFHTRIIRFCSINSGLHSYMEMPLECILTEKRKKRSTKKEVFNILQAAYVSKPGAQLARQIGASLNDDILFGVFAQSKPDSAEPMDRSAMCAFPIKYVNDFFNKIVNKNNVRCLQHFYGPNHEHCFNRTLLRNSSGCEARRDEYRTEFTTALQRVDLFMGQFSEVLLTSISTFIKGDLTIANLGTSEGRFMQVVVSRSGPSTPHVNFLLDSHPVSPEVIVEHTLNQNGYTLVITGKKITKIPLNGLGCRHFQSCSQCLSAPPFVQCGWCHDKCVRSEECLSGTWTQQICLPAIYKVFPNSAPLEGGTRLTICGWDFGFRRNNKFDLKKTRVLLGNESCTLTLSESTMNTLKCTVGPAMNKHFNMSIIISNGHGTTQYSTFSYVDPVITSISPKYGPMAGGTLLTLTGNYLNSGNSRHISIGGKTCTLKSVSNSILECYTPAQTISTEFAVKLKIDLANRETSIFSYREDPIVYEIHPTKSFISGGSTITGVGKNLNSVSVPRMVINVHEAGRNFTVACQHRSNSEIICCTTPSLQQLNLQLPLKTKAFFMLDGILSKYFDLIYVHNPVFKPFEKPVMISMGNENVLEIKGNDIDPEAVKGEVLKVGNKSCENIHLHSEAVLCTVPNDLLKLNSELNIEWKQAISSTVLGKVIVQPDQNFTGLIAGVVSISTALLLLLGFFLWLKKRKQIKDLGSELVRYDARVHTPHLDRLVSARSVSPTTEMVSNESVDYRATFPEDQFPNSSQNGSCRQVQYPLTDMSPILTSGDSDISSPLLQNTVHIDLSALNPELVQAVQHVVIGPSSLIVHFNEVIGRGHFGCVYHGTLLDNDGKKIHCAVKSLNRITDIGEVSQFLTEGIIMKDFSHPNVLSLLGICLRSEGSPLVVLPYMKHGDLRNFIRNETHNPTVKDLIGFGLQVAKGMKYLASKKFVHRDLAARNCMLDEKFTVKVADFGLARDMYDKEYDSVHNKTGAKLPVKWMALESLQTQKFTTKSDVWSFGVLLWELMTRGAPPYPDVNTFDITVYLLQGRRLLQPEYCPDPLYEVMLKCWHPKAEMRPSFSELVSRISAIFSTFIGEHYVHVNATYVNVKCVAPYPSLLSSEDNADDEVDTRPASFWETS

The target in test [7] is T7, CSNK1G1 (Homo sapiens, UniProt Q9HCP0).
T7 construct: purchased Eurofins DiscoverX KINOMEscan
T7 sequence (Q9HCP0 whole entry): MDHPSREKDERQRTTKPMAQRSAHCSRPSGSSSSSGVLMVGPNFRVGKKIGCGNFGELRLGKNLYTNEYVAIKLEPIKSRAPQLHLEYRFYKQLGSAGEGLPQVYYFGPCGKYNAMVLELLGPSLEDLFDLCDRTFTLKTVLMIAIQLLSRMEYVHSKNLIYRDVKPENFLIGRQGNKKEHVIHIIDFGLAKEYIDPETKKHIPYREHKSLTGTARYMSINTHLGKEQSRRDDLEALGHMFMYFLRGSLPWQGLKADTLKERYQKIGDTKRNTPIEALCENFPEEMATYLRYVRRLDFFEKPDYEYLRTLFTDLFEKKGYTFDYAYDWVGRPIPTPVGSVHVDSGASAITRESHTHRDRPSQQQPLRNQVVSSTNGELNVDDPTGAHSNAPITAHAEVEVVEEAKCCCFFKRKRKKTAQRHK

Test [8] has as its target T8, INSRR (Homo sapiens, UniProt P14616).
T8 construct: purchased Eurofins DiscoverX KINOMEscan

Test [9] has as its target T9, LRRK2(G2019S) (Homo sapiens, UniProt Q5S007, G2019S).
T9 construct: purchased Eurofins DiscoverX KINOMEscan

Test [10] has as its target T10, AURKB (Homo sapiens, UniProt Q96GD4).
T10 construct: purchased Eurofins DiscoverX KINOMEscan

T8 sequence (P14616 27-1297): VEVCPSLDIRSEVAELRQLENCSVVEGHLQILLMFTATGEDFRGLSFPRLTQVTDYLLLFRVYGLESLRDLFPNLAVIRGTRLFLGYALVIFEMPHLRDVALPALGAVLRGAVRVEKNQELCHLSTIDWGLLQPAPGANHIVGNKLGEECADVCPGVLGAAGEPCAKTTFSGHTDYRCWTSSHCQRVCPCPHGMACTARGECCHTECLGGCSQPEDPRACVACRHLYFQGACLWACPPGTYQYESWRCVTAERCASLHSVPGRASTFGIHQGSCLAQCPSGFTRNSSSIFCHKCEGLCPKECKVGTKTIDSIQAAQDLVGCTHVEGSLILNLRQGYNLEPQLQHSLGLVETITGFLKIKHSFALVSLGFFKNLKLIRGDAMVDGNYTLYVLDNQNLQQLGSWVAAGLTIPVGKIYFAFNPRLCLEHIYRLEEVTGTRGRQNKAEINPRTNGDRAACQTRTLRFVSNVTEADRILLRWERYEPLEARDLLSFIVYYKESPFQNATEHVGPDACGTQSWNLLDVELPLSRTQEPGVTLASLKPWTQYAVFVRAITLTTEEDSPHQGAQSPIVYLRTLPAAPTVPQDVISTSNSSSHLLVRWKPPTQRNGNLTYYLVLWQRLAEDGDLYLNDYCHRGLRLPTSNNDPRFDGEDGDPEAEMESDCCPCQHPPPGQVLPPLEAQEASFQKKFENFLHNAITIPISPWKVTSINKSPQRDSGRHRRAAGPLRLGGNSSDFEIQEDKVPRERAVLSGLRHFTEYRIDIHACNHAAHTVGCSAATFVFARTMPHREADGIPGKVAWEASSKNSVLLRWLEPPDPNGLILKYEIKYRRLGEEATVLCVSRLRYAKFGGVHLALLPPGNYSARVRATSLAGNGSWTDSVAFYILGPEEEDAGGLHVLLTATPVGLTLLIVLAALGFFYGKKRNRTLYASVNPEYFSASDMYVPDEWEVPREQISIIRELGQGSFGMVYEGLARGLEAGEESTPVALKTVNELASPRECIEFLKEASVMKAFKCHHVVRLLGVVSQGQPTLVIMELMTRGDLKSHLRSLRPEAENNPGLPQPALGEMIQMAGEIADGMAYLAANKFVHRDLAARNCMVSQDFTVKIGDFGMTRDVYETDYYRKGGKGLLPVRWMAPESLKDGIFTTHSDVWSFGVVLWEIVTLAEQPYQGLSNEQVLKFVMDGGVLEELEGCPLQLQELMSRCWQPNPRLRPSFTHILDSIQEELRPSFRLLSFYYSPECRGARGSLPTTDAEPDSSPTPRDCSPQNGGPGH
T10 sequence (Q96GD4 whole entry): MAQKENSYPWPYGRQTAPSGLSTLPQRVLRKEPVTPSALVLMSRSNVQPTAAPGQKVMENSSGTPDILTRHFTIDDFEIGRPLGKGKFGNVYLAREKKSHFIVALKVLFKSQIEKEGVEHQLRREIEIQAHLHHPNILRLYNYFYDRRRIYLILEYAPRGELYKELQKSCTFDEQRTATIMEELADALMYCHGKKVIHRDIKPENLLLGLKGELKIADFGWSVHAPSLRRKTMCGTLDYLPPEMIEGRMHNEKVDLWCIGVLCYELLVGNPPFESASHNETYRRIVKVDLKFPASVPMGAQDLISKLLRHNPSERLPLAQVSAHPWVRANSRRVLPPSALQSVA
T3 sequence (Q96SB4 whole entry): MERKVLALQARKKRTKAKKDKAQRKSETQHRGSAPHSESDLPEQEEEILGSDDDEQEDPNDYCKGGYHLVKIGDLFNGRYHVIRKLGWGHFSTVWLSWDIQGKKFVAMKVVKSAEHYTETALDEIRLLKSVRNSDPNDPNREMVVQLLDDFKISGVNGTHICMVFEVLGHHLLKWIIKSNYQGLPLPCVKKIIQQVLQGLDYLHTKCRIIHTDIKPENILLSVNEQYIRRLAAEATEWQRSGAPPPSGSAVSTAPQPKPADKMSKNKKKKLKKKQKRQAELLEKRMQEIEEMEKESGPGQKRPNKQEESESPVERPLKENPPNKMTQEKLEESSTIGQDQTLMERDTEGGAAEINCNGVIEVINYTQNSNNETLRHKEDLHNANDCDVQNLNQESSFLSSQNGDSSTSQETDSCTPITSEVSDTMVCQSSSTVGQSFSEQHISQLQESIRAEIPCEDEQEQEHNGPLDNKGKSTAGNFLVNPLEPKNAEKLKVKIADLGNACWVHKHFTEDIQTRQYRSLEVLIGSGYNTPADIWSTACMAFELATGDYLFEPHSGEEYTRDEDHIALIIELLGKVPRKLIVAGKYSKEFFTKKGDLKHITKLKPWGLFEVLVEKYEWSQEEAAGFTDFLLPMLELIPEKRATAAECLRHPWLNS

For the compound `Clc1cc(NCC2CC2)c2ncc(-c3ccc4[nH]ncc4c3)n2n1` [compound 2, 6-Chloro-N-(cyclopropylmethyl)-3-(1H-indazol-5-yl)imidazo[1,2-b]pyridazin-8-amine], the remaining binding at 1 µM in test [1] stood at 79%; in test [2] it was 88%; in [3], 100%; in test [4] it was 98%; in test [5], 100%; in [6], 100%. Moreover, the remaining binding at 1 µM in [7] was 100%; in test [8], 96%; in test [9] it was 91%; in test [10] it was 90%.

As for `O=C(CN1CCOCC1)N[C@H]1CC[C@H](Nc2cc(Cl)nn3c(-c4ccc5[nH]ncc5c4)cnc23)CC1` [compound 26], the remaining binding at 1 µM came to 93% in test [1]; 100% in test [2]; 79% in test [3]; 94% in test [4]; 92% in test [5]; 97% in [6]. Also, the remaining binding at 1 µM in test [7] was found to be 95%; in test [8], 85%; in test [9], 76%; in test [10], 55%.

In the case of `CN1CCC(CNc2cc(Cl)nn3c(-c4cc5nc(Nc6ccccc6)[nH]c5cc4F)cnc23)CC1` [compound 31, 6-Chloro-3-(6-fluoro-2-(phenylamino)-1H-benzo[d]imidazol-5-yl)-N-((1-methylpiperidin-4-yl)methyl)imidazo[1,2-b]pyridazin-8-amine], the remaining binding at 1 µM amounted to 82% in test [1]; 78% in test [2]; 84% in test [3]; 83% in test [4]; 88% in test [5]; 99% in [6]. For the same compound, the remaining binding at 1 µM in test [7] is 100%; in test [8], 100%; in test [9], 88%; in test [10] it was 83%.

The values above are taken from PMC6437697 (Journal of Medicinal Chemistry, 2019).
